Test results taken from patent US20250223328A1, “TRUNCATED DOMINANT NEGATIVE CEBPB AND CEBPD PROTEINS AND METHODS OF USE FOR DECREASING VIABILITY OF NEOPLASTIC CELLS” (The Trustees of Columbia University in the City of New York, priority 2022, published 2025).

How the values were obtained:
[1] = tested on: HCT116 colon cancer cells; test: Apoptotic nuclei in HCT116 cells transfected with DNA vectors expressing the constructs; type: cell-based
Description: FIG. 1 is a graph reporting exemplary data showing 3-box dominant negative forms of CEBPD promote apoptotic death of cancer cells. Replicate cultures of HCT116 colon cancer cells were transfected with DNA vectors expressing D-mut (a control peptide containing only the leucine zipper domain of CEBPD with all leucines in position 5 (also referred to as position “d”) of the heptad repeats mutated to glycine to suppress leucine zipper binding activity), D-1234, D-123, and D-234. Three days later, transfected cells were scored for proportion with apoptotic nuclei. Data represent means±SEM (n=4). P values vs D-mut (T-test): D-1234, p=0.0005; D-123, p=0.0014; D-234, p=0.0003.
FIG. 2 is a graph reporting exemplary data showing 2-box dominant negative forms of CEBPD promote apoptotic death of cancer cells. Replicate cultures of HCT116 cells were transfected with DNA vectors expressing D-mut, D-1234, D-12, D-23, or D-34. Three days later, transfected cells were scored for proportion with apoptotic nuclei. Data represent means±SEM (n=12 from 3 independent experiments). P values vs D-mut: D-1234, p<0.0001; D-12, p=0.056; D-23, p<0.001; D-34, p=0.0008.
FIG. 12 is a graph reporting exemplary data showing D-123EWE and D-123EKE peptides promote apoptotic death of cancer cells. Replicate cultures of HCT116 cells were transfected with an empty DNA vector or DNA vectors expressing D-123, D-123EWE, or D-123EKE. Two days later, transfected cells were scored for proportion with apoptotic nuclei. Data are pooled from two independent experiments, each with n=4. Data represent means±SEM.

[2] = tested on: T98G, MDA-MB-231, A375, Shep21N, and CHLA255 cell lines; test: Cell numbers after 6 days of peptide treatment in a panel of cancer cell lines; type: cell-based; conditions: medium with 2% fetal bovine serum, five cell lines
Experimental: FIGS. 3A-3E are graphs reporting exemplary data showing truncated dominant negative forms of CEBPD reduce cancer cell numbers. Replicate cultures of T98G (FIG. 3A), MDA-MB-231 (FIG. 3B), A375 (FIG. 3C), Shep21N (FIG. 3D), and CHLA255 (FIG. 3E) cell lines were treated with CP-D-123 at the indicated concentrations for 6 days in culture medium containing 2% fetal bovine serum and then assessed for cell numbers. Values are given as means±SEM (N=3 replicate cultures).
FIGS. 4A-4E are graphs reporting exemplary data showing truncated dominant negative forms of CEBPD reduce cancer cell numbers. Replicate cultures of T98G (FIG. 4A), MDA-MB-231 (FIG. 4B), A375 (FIG. 4C), Shep21N (FIG. 4D), and CHLA255 (FIG. 4E) cell lines were treated with CP-D-123, CP-D-234, and Bpep (at 20 μM in T98G, MDA-MB-231, A375 only) at the indicated concentrations for 6 days in culture medium containing 2% fetal bovine serum and then assessed for cell numbers. Values are given as means±SEM (N=3 replicate cultures).

[3] = HCT116, three days after transfection, control D-mut
[4] = HCT116, two days after transfection, compared with D-123

Row | Substance | Proportion of transfected cells with apoptotic nuclei [1, 3] | also measured
1 | KLVELSAENEKLHQ (SEQ ID NO: 54 - D-12) [Construct D-12] | active in causing apoptosis | 
2 | ELVELEA ENEKLHQ EVEQLER (ELVELEAENEKLHQEVEQLER; SEQ ID NO: 90 - D-123EWE) [Construct D-123EWE] |  | Proportion of transfected cells with apoptotic nuclei [1, 4]: activity comparable or greater to that of the D-123 peptide
3 | RVEQLTRDLAGLRQ (SEQ ID NO: 58 - D-34) [Construct D-34] | active in causing apoptosis | 
4 | ELVELEA KNEKLKQ EVEQLER (ELVELEAKNEKLKQEVEQLER; SEQ ID NO: 100 - D-123EKE) [Construct D-123EKE] |  | Proportion of transfected cells with apoptotic nuclei [1, 4]: activity comparable or greater to that of the D-123 peptide
5 | KLVELSAENEKLHQRVEQLTR (SEQ ID NO: 50 - D-123) [Construct D-123] | comparable rates to the full length D-1234 construct | 
6 | ENEKLHQRVEQLTRDLAGLRQ (SEQ ID NO: 52 - D-234) [Construct D-234] | comparable rates to the full length D-1234 construct | 
7 | RQIKIWFQNRRMKWKKENEKLHQRVEQLTRDLAGLRQ (SEQ ID NO: 53 - CP-D-234) |  | Reduction of cell numbers [2]: lower and less consistent in activity than CP-D-123
8 | ENEKLHQRVEQLTR (SEQ ID NO: 56 - D-23) [Construct D-23] | active in causing apoptosis | 
